Tests used:
[1] = test system: collagen-induced arthritis; conditions: oral administration, mice; cited from earlier work
[2] = Levels of Orally Administered Test Compounds in Blood Plasma; assay type: in vivo, male ICR mice
Procedure: Each of Compound 3 and MI43 was orally administered to fasted male ICR mice (weighing 18-21 g) in a dose of 25 mg/kg. Blood samples were collected from the mice 5 minutes, 30 minutes, 4 hours, 8 hours and 24 hours after administration (3 mice per point for Compound 3 and 5 mice per point for MI43). These blood samples were centrifuged to obtain blood plasma samples. Each of the blood plasma samples was subjected to the following pretreatment and then analyzed by high-performance liquid chromatography (HPLC). 1.8 ml of a saturated aqueous solution of ammonium sulfate and 1.0 ml of methanol were added to and mixed with 0.2 ml of the blood plasma sample. This mixture was shaken with 3.5 ml of ethyl acetate. After this mixture was centrifuged, the ethyl acetate layer was separated. Moreover, the aqueous layer was shaken with 3.5 ml of ethyl acetate, followed by centrifugation. The ethyl acetate layer thus obtained was combined with the previously separated ethyl acetate layer, and this mixture was evaporated to dryness under reduced pressure. The resulting residue was redissolved in 0.2 ml of a 50% aqueous solution of acetonitrile and used as a sample for HPLC.
The analytical conditions for HPLC (using the CCTD system manufactured by Toso Co., Ltd.) were as follows: A YMC A-312 column (ODS 6×150 mm; manufactured by YMC Co., Ltd.) was used as the column. As the mobile phase, a 60:40 mixture of acetonitrile and 0.1% aqueous TFA was used for Compound 3, and a 40:60 mixture of acetonitrile and 0.1% aqueous TFA was used for MI43. The rest compound was eluted at a flow velocity of 1.0 ml/min and detected by UV light at 244 nm.

adjuvant arthritis = conditions: oral administration, rats; cited from earlier work
[3] = test system: collagen-induced arthritis; test: Inhibitory Effect on Collagen-Induced Arthritis (No. 2), arthritis score; assay type: in vivo, DBA/1J mice; conditions: oral
Procedure: (§1) The preventive effect on the onset of collagen-induced arthritis was tested by using DBA/1J mice in groups of 5-8. Specifically, type II collagen was mixed with an equal volume of Freund's complete adjuvant and emulsified to prepare a 1 mg/ml emulsion. Mice were sensitized by administering 0.1 ml of this emulsion intracutaneously to the root of the tail. After 21 days, the mice were additionally immunized by emulsifying type II collagen in the same manner as before and administering 0.1 ml of the emulsion intraperitoneally so as to induce arthritis.
Animals having arthritis induced in the same manner as described above were used in groups of 7-8. Compound 3 was orally administered, once a day, for 21 days following the additional immunization in a dose of 1, 3 or 10 mg/kg body weight. For comparative purposes, MI43 was similarly administered to another group in a dose of 30 mg/kg body weight. According to the degree of rubor, swelling and rigidity in each of the forelegs and hind legs of the experimental animals, their inhibitory effect on collagen-induced arthritis was evaluated on the following basis by a score ranging from 0 to 4 (with a maximum value of 16).
0: No symptom is observed.
2: Two or more small joints, or a relatively large joint such as that of the wrist or ankle, show rubor or swelling.
4: The total swelling of the hand or foot reaches its peak and, moreover, is accompanied by joint rigidity.

[4] = test system: neogenesis of tumor vessels induced by the transplanted mouse tumor S180; test: Inhibitory Effect on Vascularization Using the Mouse Back Subcutaneous Transplantation Method; assay type: in vivo, male ICR mouse; conditions: for Vascularization score: oral 100 mg/kg, 5 days, mean ± SE
Procedure: The inhibitory effect of Compounds 1 and 3 in accordance with the present invention on the neogenesis of tumor vessels induced by the transplanted mouse tumor S180 was tested using the mouse back subcutaneous transplantation method. Specifically, 1×10^7 S180 cells were injected into a chamber formed by attaching a Millipore filter having a pore size of 0.45 μm to either side of a Millipore ring. After the injection hole was stopped up, this chamber was transplanted into an air sac formed beneath the skin of the back of a male ICR mouse (9-10 weeks old). Starting from the day of transplantation, a test compound or a solvent control comprising a 0.5% carboxymethylcellulose solution was orally administered for 5 days. After the skin was separated on the fifth day of transplantation, an O-ring of 10 mm internal diameter having the same shape as the Millipore ring was placed on the part of the skin which had been in contact with the chamber, observed under a stereoscopic microscope, and photographed.
In the photographs so taken, the degree of vascularization was rated 0, 1, 2 or 3 according to the number of 3 mm or longer tortuous blood vessels characteristic of tumoral vessels, and scored on the following basis.
0: No tumoral vessel was observed.
1: One tumoral vessel was observed.
2: Two tumoral vessels were observed.
3: Three or more tumoral vessels were observed.

[5] = test system: various animal cells and human cancer cells; conditions: cited from earlier work
Acute toxicity in mice = assay type: in vivo, DBA/1J mice; conditions: 100 mg/kg; for evidence of toxicity, single administration: mouse, in vivo; for mortality, single administration: oral or intraperitoneal, eight DBA/1J mice
Procedure: (§2) Among the compounds in accordance with the present invention, each of Compounds 1, 2 and 3 was orally or intraperitoneally administered to eight DBA/1J mice in a dose of 100 mg/kg body weight. […] This seems to indicate that the compounds used in the present invention have no or very little, if any, acute toxicity. Moreover, Compound 1, in a dose of 100 mg/kg body weight, or Compound 3, in a dose of 30 mg/kg body weight, was orally administered to eight mice of the aforesaid strain for 40 days. […] Thus, the compounds of the present invention have little subacute toxicity. Since other compounds in accordance with the present invention are estimated to have similar properties, the compounds of the present invention can be used very safely.

[6] = set-up: species or system DBA/1J mice; conditions: mouse, in vivo, po, 100 mg/kg
Procedure: as §2

[7] = test system: collagen-induced arthritis; test: Inhibitory Effect on Collagen-Induced Arthritis (No. 1), sole thickness; assay type: in vivo, DBA/1J mice; conditions: mean ± SD
Procedure: as §1
Starting from the day of the first sensitization with type II collagen, Compound 1 was orally administered, once a day, for 43 days in a dose of 10 or 30 mg/kg body weight. Similarly, each of Compounds 2 and 3 was intraperitoneally administered, once a day, for 43 days in a dose of 1 or 10 mg/kg body weight. Their inhibitory effect on collagen-induced arthritis was evaluated by measuring the sole thicknesses of the hind legs periodically with digital vernier calipers.

carrageenin edema = test: Effect on Carrageenin Edema; assay type: in vivo, ICR mice
Procedure: The effect on carrageenin edema was tested by using ICR mice in groups of 6-7. Specifically, Compound 3 was orally administered thereto in a dose of 3 or 30 mg/kg body weight. As a positive control drug, indomethacin was similarly administered in a dose of 20 mg/kg body weight. After 30 minutes, 25 μl of a 1% carrageenin solution was subcutaneously injected into the sole of the right hind leg. Two hours after the administration of carrageenin, the thickness of the sole was measured with digital vernier calipers, and the degree of edema (%) based on the thickness measured before administration was calculated.

SMILES: COc1cc(O)c2c(=O)oc(CO)cc2c1 [MI43, 3-hydroxymethyl-6-methoxy-8-hydroxy-1H-2-benzopyran-1-one, reference compound]
- inhibition of collagen-induced arthritis (in words) [1]: significantly inhibit adjuvant arthritis in rats and collagen-induced arthritis in mice
- concentration at 5 min ([2]; mouse, plasma, oral 25 mg/kg, 5 min, read-out: Concentration of unchanged M143 in blood plasma, mean): 811 ng/mL
- concentration at 0.5 h ([2]; mouse, plasma, oral 25 mg/kg, 30 min, read-out: Concentration of unchanged M143 in blood plasma, mean): 155 ng/mL
- concentration at 4 h ([2]; mouse, plasma, oral 25 mg/kg, 4 hr, read-out: Concentration of unchanged M143 in blood plasma, mean): 48 ng/mL
- Tmax ([2]; mouse, plasma, unchanged compound, oral 25 mg/kg, read-out: time of peak / highest plasma level after administration (converted)): 5 min
- number of metabolites detected in plasma ([2]; oral 25 mg/kg): 5
- plasma concentration course after 5 minutes (in words) ([2]; unchanged MI43, oral 25 mg/kg): decreased sharply
- inhibition of adjuvant arthritis (in words) (adjuvant arthritis): significantly inhibit adjuvant arthritis in rats
- reduction in arthritis score (in words) ([3]; 30 mg/kg body weight): no significant reduction in arthritis score
- Score after 37 days ([3]; 30 mg/kg/day, mean ± SE, maximum 16, control 9.25 ± 1.35): 5.29 ± 1.77
- Vascularization score ([4]; n = 11, control 2.93 ± 0.07, Table 4): 1.09 ± 0.39
- growth-inhibiting activity (in words) [5]: growth-inhibiting activity against various animal cells and human cancer cells

SMILES: COc1cc(O)c2c(=O)oc(C(=O)O)cc2c1 [Compound 1, 8-hydroxy-6-methoxy-1-oxo-1H-2-benzopyran-3-carboxylic Acid]
- evidence of toxicity, single administration (Acute toxicity in mice): no animal showed evidences of toxicity
- mortality, single administration (Acute toxicity in mice): No animal died
- Vascularization score ([4]; n = 9, p < 0.05 vs control (3.00 ± 0.00), Table 3): 1.67 ± 0.53
- inhibition of vascularization induced by tumor cell S180 (in words) ([4]; oral, 100 mg/kg body weight): significantly inhibited vascularization
- evidence of toxicity, 40 days [6]: no animal showed evidences of toxicity
- mortality, 40 days [6]: No animal died
- Sole thickness (sum of left and right, mm), after 37 days ([7]; oral, 10 mg/kg/day, **p < 0.01 vs control (8.02 ± 0.82)): 6.44 ± 0.40 mm
- Sole thickness (sum of left and right, mm), after 37 days ([7]; oral, 30 mg/kg/day, **p < 0.01 vs control (8.02 ± 0.82)): 6.12 ± 0.22 mm

SMILES: COc1ccc2c(c1)c(CC(=O)O)c(C)n2C(=O)c1ccc(Cl)cc1 [Indomethacin, reference compound]
- effect on carrageenin edema (in words) (carrageenin edema; 20 mg/kg): significan inhibitory effect
- Degree of edema (%) (carrageenin edema; oral 20 mg/kg, 2 h after carrageenin, mean ± SE, **p < 0.01 vs control (47.4 ± 2.8)): 18.5 ± 3.5%

SMILES: COc1cc(O)c2c(=O)oc(CC(=O)O)cc2c1 [Compound 2, (8-hydroxy-6-methoxy-1-oxo-1H-2-benzopyran-3-yl)acetic Acid]
- evidence of toxicity, single administration (Acute toxicity in mice): no animal showed evidences of toxicity
- mortality, single administration (Acute toxicity in mice): No animal died
- Sole thickness (sum of left and right, mm), after 37 days ([7]; intraperitoneal, 1 mg/kg/day, *p < 0.05 vs control (8.02 ± 0.82)): 6.81 ± 1.07 mm
- Sole thickness (sum of left and right, mm), after 37 days ([7]; intraperitoneal, 10 mg/kg/day, *p < 0.05 vs control (8.02 ± 0.82)): 7.19 ± 0.40 mm

Reference: US6020363A, “Isocoumarin derivatives and use thereof in drugs” (Mercian Corporation, priority 1998, dated 2000)
